# From patent US12371454B2, “Cyclic peptide compound having Kras inhibitory action” (priority 2019, dated 2025)
# Positions of bridges follow the written chain, without caps; N, C: chain ends. Non-standard residues stand in square brackets, D forms with d. Residues, ends and D or L forms follow the SMILES beside them. *: point of attachment. hPhe(3-Cl-4-CF3) = N[C@@H](CCc1ccc(C(F)(F)F)c(Cl)c1)C(=O)O; hPhe(3-F,4-CF3) = N[C@@H](CCc1ccc(C(F)(F)F)c(F)c1)C(=O)O; NMePhe(4-CF3) = CN[C@@H](Cc1ccc(C(F)(F)F)cc1)C(=O)O; hPhe(4-CF3) = N[C@@H](CCc1ccc(C(F)(F)F)cc1)C(=O)O; NMeAbu(4,4,4-F3) = CN[C@@H](CC(F)(F)F)C(=O)O; NMePhe(4-Cl) = CN[C@@H](Cc1ccc(Cl)cc1)C(=O)O; NMePhe(2-OMe) = CN[C@@H](Cc1ccccc1OC)C(=O)O; NMePhe(4-Me) = CN[C@@H](Cc1ccc(C)cc1)C(=O)O; Phe(3-CN) = N#Cc1cccc(C[C@H](N)C(=O)O)c1; Phe(3-I) = N[C@@H](Cc1cccc(I)c1)C(=O)O; NMeAla(cPr) = CN[C@@H](CC1CC1)C(=O)O; NMeCha = CN[C@@H](CC1CCCCC1)C(=O)O; NMeChg = CN[C@H](C(=O)O)C1CCCCC1; NMeF = CN[C@@H](Cc1ccccc1)C(=O)O; hPhe = N[C@@H](CCc1ccccc1)C(=O)O; N(CH2CH2)2CF2 = FC1(F)CCN(*)CC1; NMeD = CN[C@@H](CC(=O)O)C(=O)O; NMeL = CN[C@@H](CC(C)C)C(=O)O; NMeV = CN[C@H](C(=O)O)C(C)C; d(β3hA) = C[C@@H](N)CC(=O)O; NMeA = CN[C@@H](C)C(=O)O; NMeAib = CNC(C)(C)C(=O)O; Nle = CCCC[C@H](N)C(=O)O; Piperidide = C1CCN(*)CC1; Pyrrolidide = C1CCN(*)C1; Ac5c = NC1(C(=O)O)CCCC1; Ac4c = NC1(C(=O)O)CCC1; Sar = CNCC(=O)O
# Target: T1, Kras and SOS1 (biotin-tagged human Kras loaded with GDP, His-tagged human SOS1) (Homo sapiens, UniProt P01116, G12D)
# T1 construct: made in house; host or cells: E. coli (stated for Kras only)
# T1 sequence (P01116 1-188 isoform P01116-2 G12D): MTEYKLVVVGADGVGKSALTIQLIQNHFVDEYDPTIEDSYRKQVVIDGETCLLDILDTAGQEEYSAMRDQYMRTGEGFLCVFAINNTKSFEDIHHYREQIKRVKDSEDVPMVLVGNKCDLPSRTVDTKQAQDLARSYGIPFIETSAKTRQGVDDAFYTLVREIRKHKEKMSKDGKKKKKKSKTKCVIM
# Experiment: Protein-protein interaction inhibition between Kras and SOS1 (KrasGl2D-SOS PPI) using AlphaScreen
# Type: binding
# Conditions: AlphaScreen; biotin-tagged human Kras loaded with GDP, His-tagged human SOS1; read-out: KRAS G12D-SOS PPI IC50
# Outline: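 Energy transfer from nickel-chelate donor beads bound to His-SOS1 to streptavidin acceptor beads bound to biotin-Kras, expressed in E. coli and loaded with GDP after purification, was monitored. Donors were excited at 680 nm; singlet oxygen reaching acceptors gave emission read at 520-620 nm.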
row,SMILES,IC50
1,"CC[C@H](C)[C@@H]1NC(=O)[C@H](CC(F)(F)F)N(C)C(=O)C[C@@H](C(=O)N2CCCC2)N(C)C(=O)[C@H](C2CCCCC2)N(C)C(=O)C2(CCCC2)NC(=O)[C@@H]2CCCN2C(=O)[C@H](CCc2ccc(C(F)(F)F)c(Cl)c2)NC(=O)CN(C)C(=O)[C@H](Cc2ccc(C(F)(F)F)cc2)N(C)C(=O)CN(C)C(=O)CN(C)C1=O [Compound 245, (3S,9S,18S,21S,25S,28S,34S)-3-[2-[3-chloro-4-(trifluoromethyl)phenyl]ethyl]-28-cyclohexyl-7,10,13,16,22,26,29-heptamethyl-18-[(1S)-1-methylpropyl]-25-(pyrrolidine-1-carbonyl)-21-(2,2,2-trifluoroethyl)-9-[[4-(trifluoromethyl)phenyl]methyl]spiro[1,4,7,10,13,16,19,22,26,29,32-undecazabicyclo[32.3.0]heptatriacontane-31,1′-cyclopentane]-2,5,8,11,14,17,20,23,27,30,33-undecone] ([NMeAbu(4,4,4-F3)]I[Sar][Sar][NMePhe(4-CF3)][Sar][hPhe(3-Cl-4-CF3)]P[Ac5c][NMeChg][NMeD]-Pyrrolidide; lactam N-11)",0.37 nM
2,CC[C@H](C)[C@@H]1NC(=O)[C@H](CC(C)C)N(C)C(=O)C[C@@H](C(=O)N2CCCCC2)N(C)C(=O)[C@H](CC(C)C)NC(=O)C(C)(C)N(C)C(=O)[C@H](Cc2ccc(OC)cc2)NC(=O)[C@H](Cc2cccc(I)c2)NC(=O)CN(C)C(=O)[C@H](Cc2ccc(C)cc2)N(C)C(=O)CN(C)C(=O)CN(C)C1=O [Compound 247] ([NMeL]I[Sar][Sar][NMePhe(4-Me)][Sar][Phe(3-I)]Y(Me)[NMeAib]L[NMeD]-Piperidide; lactam N-11),7 nM
3,CC[C@H](C)[C@@H]1NC(=O)[C@H](CC2CC2)N(C)C(=O)C[C@@H](C)NC(=O)[C@H](C(C)C)N(C)C(=O)C2(CCCC2)NC(=O)[C@@H]2CCCN2C(=O)[C@H](CCc2ccc(C(F)(F)F)c(Cl)c2)NC(=O)CN(C)C(=O)[C@H](CC2CCCCC2)N(C)C(=O)CN(C)C(=O)CN(C)C1=O [Compound 248] (cyclo([Ac5c][NMeV][d(β3hA)][NMeAla(cPr)]I[Sar][Sar][NMeCha][Sar][hPhe(3-Cl-4-CF3)]P)),31 nM
4,CC[C@H](C)[C@@H]1NC(=O)[C@H](CC(C)C)N(C)C(=O)C[C@@H](C(=O)N2CCCCC2)N(C)C(=O)[C@H](C(C)C)N(C)C(=O)C2(CCC2)NC(=O)[C@H](CC(=O)N2CCC(F)(F)CC2)N(C)C(=O)[C@H](CCc2ccc(C(F)(F)F)c(Cl)c2)NC(=O)CN(C)C(=O)[C@H](CC2CCCCC2)N(C)C(=O)CN(C)C(=O)CN(C)C1=O [Compound 251] ([NMeL]I[Sar][Sar][NMeCha][Sar][hPhe(3-Cl-4-CF3)][NMeD](N(CH2CH2)2CF2)[Ac4c][NMeV][NMeD]-Piperidide; lactam N-11),3.8 nM
5,CC[C@H](C)[C@@H]1NC(=O)[C@H](C)N(C)C(=O)C[C@@H](C(=O)N2CCCCC2)NC(=O)[C@H](CC(C)C)N(C)C(=O)[C@H](Cc2ccccc2)N(C)C(=O)[C@H](CC(C)C)NC(=O)[C@H](Cc2cccc(C#N)c2)NC(=O)CN(C)C(=O)[C@H](Cc2ccc(Cl)cc2)N(C)C(=O)CN(C)C(=O)CN(C)C1=O [Compound 252] ([NMeA]I[Sar][Sar][NMePhe(4-Cl)][Sar][Phe(3-CN)]L[NMeF][NMeL]D-Piperidide; lactam N-11),55 nM
6,CC[C@H](C)[C@@H]1NC(=O)[C@H](CC(C)C)N(C)C(=O)C[C@@H](C)NC(=O)[C@H](CC(C)C)N(C)C(=O)C2(CCCC2)NC(=O)[C@@H]2CCCN2C(=O)[C@H](CCc2ccc(C(F)(F)F)cc2)NC(=O)CN(C)C(=O)[C@H](Cc2ccc(Cl)cc2)N(C)C(=O)CN(C)C(=O)CN(C)C1=O [Compound 258] (cyclo([Ac5c][NMeL][d(β3hA)][NMeL]I[Sar][Sar][NMePhe(4-Cl)][Sar][hPhe(4-CF3)]P)),36 nM
7,CCCC[C@@H]1NC(=O)[C@H](Cc2cccc(I)c2)NC(=O)CN(C)C(=O)[C@H](Cc2ccc(Cl)cc2)N(C)C(=O)CN(C)C(=O)CN(C)C(=O)[C@H]([C@@H](C)CC)NC(=O)[C@H](CC(C)C)N(C)C(=O)C[C@@H](C(=O)N2CCCCC2)N(C)C(=O)[C@H](CC(C)C)NC(=O)[C@H](Cc2ccccc2OC)N(C)C1=O [Compound 259] ([NMeL]I[Sar][Sar][NMePhe(4-Cl)][Sar][Phe(3-I)][Nle][NMePhe(2-OMe)]L[NMeD]-Piperidide; lactam N-11),21 nM
8,CC[C@H](C)[C@@H]1NC(=O)[C@H](CC(C)C)N(C)C(=O)C[C@@H](C(=O)N2CCCCC2)N(C)C(=O)[C@H](C(C)C)N(C)C(=O)C2(CCCC2)NC(=O)[C@@H]2CCCN2C(=O)[C@H](CCc2ccccc2)NC(=O)CN(C)C(=O)[C@H](CC2CCCCC2)N(C)C(=O)CN(C)C(=O)CN(C)C1=O [Compound 265] ([NMeL]I[Sar][Sar][NMeCha][Sar][hPhe]P[Ac5c][NMeV][NMeD]-Piperidide; lactam N-11),280 nM
9,"CC[C@H](C)[C@@H]1NC(=O)[C@H](C)N(C)C(=O)C[C@@H](C(=O)N2CCCCC2)N(C)C(=O)[C@H](C(C)C)N(C)C(=O)C2(CCCC2)NC(=O)[C@@H]2CCCN2C(=O)[C@H](CCc2ccc(C(F)(F)F)c(F)c2)NC(=O)CN(C)C(=O)[C@H](CC2CCCCC2)N(C)C(=O)CN(C)C(=O)CN(C)C1=O [Compound 266] ([NMeA]I[Sar][Sar][NMeCha][Sar][hPhe(3-F,4-CF3)]P[Ac5c][NMeV][NMeD]-Piperidide; lactam N-11)",4.6 nM
